The source of these data is ChEMBL document CHEMBL4334471, “Discovery of 1,8-disubstituted-[1,2,3]triazolo[4,5-c]quinoline derivatives as a new class of Hippo signaling pathway inhibitors” (Bioorg Med Chem Lett, 2019).

Molecules are shown by their SMILES.

The species named for test [1] is Homo sapiens. Kind of test: Inhibition of recombinant human BRSK2 S251I mutant (2 to end residues) assessed as residual activity at 10 uM using KKLNRTLSFAEPG substrate incubated for 40 mins in presence of [gamma-33ATP] by scintillation counting based radiometry assay relative to control.
Test [2] deals with Cyclin-dependent kinase 1/cyclin B1 (Homo sapiens) (UniProt P06493+P14635). Kind of test: Inhibition of recombinant full length human CDK1/CyclinB assessed as residual activity at 10 uM using Histone H1 as substrate incubated for 40 mins in presence of [gamma-33ATP] by scintillation counting based radiometry assay relative to control. The class given is protein-complex assay.

In test [3] the test system is Mast/stem cell growth factor receptor Kit (Homo sapiens), P10721 [D816V]. Kind of test: Inhibition of recombinant human C-Kit D816V mutant (544 to end residues) assessed as residual activity at 10 uM poly(Glu, Tyr) 4:1 as substrate incubated 40 mins in presence of [gamma-33ATP] by scintillation counting based radiometry assay relative to control.
Test [4] deals with Mast/stem cell growth factor receptor Kit (Homo sapiens), P10721 [V560G]. Kind of test: Inhibition of recombinant human C-Kit V560G mutant (544 to end residues) assessed as residual activity at 10 uM poly(Glu, Tyr) 4:1 as substrate incubated 40 mins in presence of [gamma-33ATP] by scintillation counting based radiometry assay relative to control.
In test [5] the target is Fibroblast growth factor receptor 1 (Homo sapiens) (UniProt P11362). Kind of test: Inhibition of recombinant human FGFR1 (456 to 765 residues) assessed as residual activity at 10 uM using KKKSPGEYVNIEF as substrate at 40 mins in presence of [gamma-33ATP] by scintillation counting based radiometry assay relative to control.
Fibroblast growth factor receptor 1 (Homo sapiens), sequence (P11362 22-822 limits assumed): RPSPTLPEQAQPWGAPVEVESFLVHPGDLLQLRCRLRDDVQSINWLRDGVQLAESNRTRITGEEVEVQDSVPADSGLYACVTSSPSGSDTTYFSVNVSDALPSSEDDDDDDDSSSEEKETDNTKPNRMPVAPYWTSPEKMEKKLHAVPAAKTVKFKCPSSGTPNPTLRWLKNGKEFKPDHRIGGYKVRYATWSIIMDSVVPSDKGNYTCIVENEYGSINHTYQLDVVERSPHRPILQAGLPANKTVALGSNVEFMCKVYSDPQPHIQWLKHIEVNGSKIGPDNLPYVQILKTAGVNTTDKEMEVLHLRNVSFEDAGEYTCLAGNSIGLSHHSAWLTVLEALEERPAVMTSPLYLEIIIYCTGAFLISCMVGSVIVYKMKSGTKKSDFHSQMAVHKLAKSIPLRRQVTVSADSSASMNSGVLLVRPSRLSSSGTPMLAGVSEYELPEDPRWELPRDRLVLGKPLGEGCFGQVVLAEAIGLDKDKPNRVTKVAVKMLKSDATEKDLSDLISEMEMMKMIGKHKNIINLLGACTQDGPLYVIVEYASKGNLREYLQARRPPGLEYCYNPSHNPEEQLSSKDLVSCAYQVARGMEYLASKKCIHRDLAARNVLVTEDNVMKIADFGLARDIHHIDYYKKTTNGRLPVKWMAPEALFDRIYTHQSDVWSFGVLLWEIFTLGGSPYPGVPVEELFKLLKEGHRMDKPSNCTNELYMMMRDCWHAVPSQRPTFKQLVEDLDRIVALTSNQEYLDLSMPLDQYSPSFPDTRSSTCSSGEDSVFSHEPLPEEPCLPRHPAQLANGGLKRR
Test [6] deals with G protein-coupled receptor kinase 5 (Homo sapiens) (UniProt P34947). Kind of test: Inhibition of recombinant full length human GRK5 assessed as residual activity at 10 uM using casein as substrate at 40 mins in presence of [gamma-33ATP] by scintillation counting based radiometry assay relative to control.
The target in test [7] is Tyrosine-protein kinase Lck (Homo sapiens) (UniProt P06239). Kind of test: Inhibition of recombinant full length human LCK activated assessed as residual activity at 10 uM using KVEKIGEGTYGVVYK as substrate after 40 mins in presence of [gamma-33ATP] by scintillation counting based radiometry assay relative to control.
Test [8] concerns the target LIM domain kinase 1 (Homo sapiens) (UniProt P53667). Kind of test: Inhibition of recombinant human LIMK1 (285 to 638 residues) assessed as residual activity at 10 uM using cofilin as substrate after 40 mins in presence of [gamma-33ATP] by scintillation counting based radiometry assay relative to control.
Test [9] concerns the target Myosin light chain kinase, smooth muscle (Homo sapiens) (UniProt Q15746). Kind of test: Inhibition of recombinant human MLCK (1425 to 1771 residues) assessed as residual activity at 10 uM using […] incubated for 40 mins in presence of [gamma-33ATP by scintillation counting based radiometry assay relative to control.
The target of test [10] is Serine/threonine-protein kinase 26 (Homo sapiens) (UniProt Q9P289). Kind of test: Inhibition of recombinant human MST4 (4 to 304 residues) assessed as residual activity at 10 uM using RLGRDKYKTLRQI as substrate measured after 40 mins in presence of [gamma33P]ATP by scintillation counting based radiometry assay relative to control.
For test [11], the target named is Muscle, skeletal receptor tyrosine-protein kinase (Homo sapiens) (UniProt O15146). Kind of test: Inhibition of recombinant human MUSK (530 to end residues) assessed as residual activity at 10 uM using myelin basic protein as substrate measured after 40 mins in presence of [gamma33P]ATP by scintillation counting based radiometry assay relative to control.
The target of test [12] is Serine/threonine-protein kinase PAK 3 (Homo sapiens) (UniProt O75914). Kind of test: Inhibition of recombinant full-length human PAK3 assessed as residual activity at 10 uM using RRRLSFAEPG as substrate measured after 40 mins in presence of [gamma33P]ATP by scintillation counting based radiometry assay relative to control.
Serine/threonine-protein kinase PAK 3 (Homo sapiens), sequence (O75914 whole entry, looked up): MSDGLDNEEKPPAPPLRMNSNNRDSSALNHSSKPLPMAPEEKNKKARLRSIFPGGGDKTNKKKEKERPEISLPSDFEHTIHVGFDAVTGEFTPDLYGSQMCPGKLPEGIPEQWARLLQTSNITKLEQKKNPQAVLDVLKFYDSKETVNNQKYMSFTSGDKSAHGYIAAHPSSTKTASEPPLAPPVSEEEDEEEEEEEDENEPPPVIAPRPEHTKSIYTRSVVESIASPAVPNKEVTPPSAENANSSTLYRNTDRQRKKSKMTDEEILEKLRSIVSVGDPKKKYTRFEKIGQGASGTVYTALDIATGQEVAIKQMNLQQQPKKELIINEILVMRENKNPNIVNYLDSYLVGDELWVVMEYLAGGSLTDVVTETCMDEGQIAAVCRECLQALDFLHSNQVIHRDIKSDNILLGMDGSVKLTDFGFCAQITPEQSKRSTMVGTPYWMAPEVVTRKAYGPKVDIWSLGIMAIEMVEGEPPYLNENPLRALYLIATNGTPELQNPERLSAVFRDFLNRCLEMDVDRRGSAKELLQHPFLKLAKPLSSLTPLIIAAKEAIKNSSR
Test [13] addresses Protein kinase C delta type (Homo sapiens) (UniProt Q05655). Kind of test: Inhibition of recombinant human PKCdelta (2 to end residues) assessed as residual activity at 10 uM using ERMRPRKRQGSVRR as substrate incubated for 40 mins in presence of [gamma33P]ATP by scintillation counting based radiometry assay relative to control.
Test [14] deals with Interferon-induced, double-stranded RNA-activated protein kinase (Homo sapiens) (UniProt P19525). Kind of test: Inhibition of recombinant human PKR (252 to end residues) assessed as residual activity at 10 uM using RSRSRSRSRSRSRSR as substrate incubated for 40 mins in presence of [gamma33P]ATP by scintillation counting based radiometry assay relative to control.
The target of test [15] is Ribosomal protein S6 kinase alpha-6 (Homo sapiens) (UniProt Q9UK32). Kind of test: Inhibition of recombinant full length human Rsk4 assessed as residual activity at 10 uM using LRRASLG as substrate incubated for 40 mins in presence of [gamma33P]ATP by scintillation counting based radiometry assay relative to control.
The subject of test [16] is Serine/threonine-protein kinase TAO3 (Homo sapiens), Q9H2K8 [UNDEFINED MUTATION]. Kind of test: Inhibition of recombinant human TAO3 N47S mutant (1 to 411 residues) assessed as residual activity at 10 uM using myelin basic protein as substrate incubated for 40 mins in presence of [gamma33P]ATP by scintillation counting based radiometry assay relative to control.
Test [17] addresses BDNF/NT-3 growth factors receptor (Homo sapiens) (UniProt Q16620). Kind of test: Inhibition of recombinant human TRKB (455 to end residues) assessed as residual activity at 10 uM using poly(Glu, Tyr) 4:1 as substrate incubated for 40 mins in presence of [gamma33P]ATP by scintillation counting based radiometry assay relative to control.
Test [18] has as its target NT-3 growth factor receptor (Homo sapiens) (UniProt Q16288). Kind of test: Inhibition of recombinant human TRKC (510 to end residues) assessed as residual activity at 10 uM using GEEPLYWSFPAKK as substrate incubated for 40 mins in presence of [gamma33P]ATP by scintillation counting based radiometry assay relative to control.
For test [19], the target named is Tyrosine-protein kinase TXK (Homo sapiens) (UniProt P42681). Kind of test: Inhibition of recombinant human Txk (256 to end residues) assessed as residual activity at 10 uM using GEEPLYWSFPAKKK as substrate incubated for 40 mins in presence of [gamma33P]ATP by scintillation counting based radiometry assay relative to control.
Tyrosine-protein kinase TXK (Homo sapiens), sequence (P42681 whole entry): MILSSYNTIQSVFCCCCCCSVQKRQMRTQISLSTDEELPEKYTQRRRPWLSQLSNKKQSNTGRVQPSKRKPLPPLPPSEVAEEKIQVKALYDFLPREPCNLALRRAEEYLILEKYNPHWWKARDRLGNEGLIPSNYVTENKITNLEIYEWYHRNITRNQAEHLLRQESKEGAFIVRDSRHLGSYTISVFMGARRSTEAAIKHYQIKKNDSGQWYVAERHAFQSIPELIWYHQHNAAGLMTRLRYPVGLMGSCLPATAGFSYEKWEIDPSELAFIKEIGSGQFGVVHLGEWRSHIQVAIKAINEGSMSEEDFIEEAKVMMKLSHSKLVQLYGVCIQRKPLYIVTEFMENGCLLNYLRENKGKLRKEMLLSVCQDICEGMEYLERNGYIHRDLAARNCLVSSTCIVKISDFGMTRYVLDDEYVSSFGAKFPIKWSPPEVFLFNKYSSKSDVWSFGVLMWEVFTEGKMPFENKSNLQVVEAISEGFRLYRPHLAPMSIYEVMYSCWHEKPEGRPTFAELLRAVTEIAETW
The target in test [20] is Phosphatidylinositol 4-phosphate 5-kinase type-1 alpha (Homo sapiens) (UniProt Q99755). Kind of test: Inhibition of recombinant full-length human PIP5K1alpha assessed as residual activity at 10 uM using phosphatidylinositol 5-phosphate as substrate by HTRF assay relative to control. For orientation: Time-resolved FRET reads energy transfer from a long-lived donor to a nearby acceptor.

Test [21] deals with Mitogen-activated protein kinase kinase kinase 10 (Homo sapiens) (UniProt Q02779). Kind of test: Inhibition of recombinant human MLK2 (1 to 499 residues) assessed as residual activity at 10 uM using myelin basic protein as substrate incubated for 40 mins in presence of [gamma-33ATP by scintillation counting based radiometry assay relative to control.
Mitogen-activated protein kinase kinase kinase 10 (Homo sapiens), sequence (Q02779 whole entry, looked up, the tested form may be a part): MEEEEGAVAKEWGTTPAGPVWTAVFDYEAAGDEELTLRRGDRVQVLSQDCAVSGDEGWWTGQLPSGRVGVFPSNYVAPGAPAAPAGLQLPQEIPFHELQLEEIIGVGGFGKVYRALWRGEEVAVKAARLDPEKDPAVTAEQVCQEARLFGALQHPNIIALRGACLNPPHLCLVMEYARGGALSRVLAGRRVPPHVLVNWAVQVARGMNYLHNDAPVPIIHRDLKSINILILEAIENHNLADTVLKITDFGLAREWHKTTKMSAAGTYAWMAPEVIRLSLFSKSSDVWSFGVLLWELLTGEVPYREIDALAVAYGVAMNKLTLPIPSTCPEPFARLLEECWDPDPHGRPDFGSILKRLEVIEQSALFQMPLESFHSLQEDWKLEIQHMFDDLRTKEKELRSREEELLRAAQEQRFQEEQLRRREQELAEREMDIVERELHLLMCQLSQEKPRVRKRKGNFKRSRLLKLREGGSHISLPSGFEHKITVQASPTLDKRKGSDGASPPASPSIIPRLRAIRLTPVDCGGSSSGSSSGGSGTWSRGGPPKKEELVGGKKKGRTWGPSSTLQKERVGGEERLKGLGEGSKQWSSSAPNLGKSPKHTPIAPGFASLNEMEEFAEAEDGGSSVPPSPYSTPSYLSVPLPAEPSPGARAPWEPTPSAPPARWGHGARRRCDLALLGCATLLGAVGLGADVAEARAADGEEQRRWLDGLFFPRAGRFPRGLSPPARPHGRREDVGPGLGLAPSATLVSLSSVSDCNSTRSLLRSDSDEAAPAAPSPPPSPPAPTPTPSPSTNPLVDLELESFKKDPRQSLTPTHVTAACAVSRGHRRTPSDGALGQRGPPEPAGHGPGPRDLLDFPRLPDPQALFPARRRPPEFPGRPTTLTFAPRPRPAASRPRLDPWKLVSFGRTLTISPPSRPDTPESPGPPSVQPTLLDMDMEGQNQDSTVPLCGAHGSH

Myosin light chain kinase, smooth muscle (Homo sapiens), sequence (Q15746 whole entry, the tested form may be a part): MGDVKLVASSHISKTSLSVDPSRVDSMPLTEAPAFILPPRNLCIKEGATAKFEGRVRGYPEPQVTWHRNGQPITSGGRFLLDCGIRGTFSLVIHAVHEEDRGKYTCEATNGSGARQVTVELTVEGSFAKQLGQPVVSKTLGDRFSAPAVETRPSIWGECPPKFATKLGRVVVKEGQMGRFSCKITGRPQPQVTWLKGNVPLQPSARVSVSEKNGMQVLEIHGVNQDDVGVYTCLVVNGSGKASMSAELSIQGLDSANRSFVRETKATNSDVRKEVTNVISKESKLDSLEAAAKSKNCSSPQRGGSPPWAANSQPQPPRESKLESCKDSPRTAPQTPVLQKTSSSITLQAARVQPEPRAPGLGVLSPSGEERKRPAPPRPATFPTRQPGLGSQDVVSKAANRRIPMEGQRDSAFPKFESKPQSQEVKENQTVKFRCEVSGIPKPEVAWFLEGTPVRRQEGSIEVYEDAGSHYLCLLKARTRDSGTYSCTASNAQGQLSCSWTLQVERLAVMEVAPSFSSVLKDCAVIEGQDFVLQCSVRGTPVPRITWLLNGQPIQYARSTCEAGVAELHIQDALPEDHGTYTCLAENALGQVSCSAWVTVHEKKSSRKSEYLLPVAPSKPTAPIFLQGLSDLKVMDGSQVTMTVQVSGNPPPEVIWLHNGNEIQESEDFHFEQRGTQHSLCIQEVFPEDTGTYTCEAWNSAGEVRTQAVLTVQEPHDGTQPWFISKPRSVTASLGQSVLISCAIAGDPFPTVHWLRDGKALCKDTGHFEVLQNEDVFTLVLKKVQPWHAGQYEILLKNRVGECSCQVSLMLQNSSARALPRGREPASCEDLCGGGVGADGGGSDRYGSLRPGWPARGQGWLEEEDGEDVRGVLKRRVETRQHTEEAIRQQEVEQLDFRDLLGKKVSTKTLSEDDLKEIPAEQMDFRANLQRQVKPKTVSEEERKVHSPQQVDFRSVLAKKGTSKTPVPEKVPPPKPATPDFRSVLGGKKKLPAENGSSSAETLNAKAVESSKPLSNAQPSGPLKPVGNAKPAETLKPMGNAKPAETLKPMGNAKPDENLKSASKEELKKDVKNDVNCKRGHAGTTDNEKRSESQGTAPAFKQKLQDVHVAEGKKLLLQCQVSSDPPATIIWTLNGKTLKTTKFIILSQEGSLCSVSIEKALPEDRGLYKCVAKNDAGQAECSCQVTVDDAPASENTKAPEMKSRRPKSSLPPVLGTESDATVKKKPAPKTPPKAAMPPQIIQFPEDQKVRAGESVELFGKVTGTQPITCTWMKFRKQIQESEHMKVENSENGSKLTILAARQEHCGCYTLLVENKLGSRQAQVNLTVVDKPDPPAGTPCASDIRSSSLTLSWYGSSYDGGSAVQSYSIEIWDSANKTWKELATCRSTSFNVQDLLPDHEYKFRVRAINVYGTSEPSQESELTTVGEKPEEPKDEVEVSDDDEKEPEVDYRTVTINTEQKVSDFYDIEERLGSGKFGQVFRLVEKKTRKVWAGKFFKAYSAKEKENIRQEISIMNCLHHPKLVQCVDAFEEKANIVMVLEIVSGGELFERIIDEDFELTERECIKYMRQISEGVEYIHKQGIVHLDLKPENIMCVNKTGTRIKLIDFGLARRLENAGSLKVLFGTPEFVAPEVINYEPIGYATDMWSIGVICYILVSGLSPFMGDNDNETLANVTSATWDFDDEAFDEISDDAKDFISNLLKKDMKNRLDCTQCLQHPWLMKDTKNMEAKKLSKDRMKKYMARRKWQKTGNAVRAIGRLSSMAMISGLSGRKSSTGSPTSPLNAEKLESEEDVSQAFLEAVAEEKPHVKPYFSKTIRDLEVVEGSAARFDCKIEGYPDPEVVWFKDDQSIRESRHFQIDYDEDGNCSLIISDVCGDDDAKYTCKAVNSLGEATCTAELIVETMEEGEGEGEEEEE

Turning to `C[C@@H](c1ccccc1)n1nnc2cnc3ccc(-c4cnc5[nH]ccc5c4)cc3c21`, the Activity in test [1] is 77%; in [2], 63%; in test [3], 86%; in [4], 3%; in test [5] it was 34%; in test [6], 91%. Further, the Activity in test [7] is 4%; in [8] it was 95%; in test [9], 61%; in test [10] it was 69%; in test [11] it was 74%; in test [12], 136%. For the same compound, the Activity amounted to 91% in test [13]; 81% in test [14]; 62% in test [15]; 68% in [16]; 2% in test [17]; 2% in test [18]. In addition, the Activity is 23% in test [19], 73 to 83% in test [20] and 69% in test [21].
